Measured values taken from US11219625B2, “Inhibitors of N-linked glycosylation and methods using same” (YALE UNIVERSITY, priority 2015, dated 2022).

Experiments:
Assay type in all cases: cell-based
[1] = test system: PC9 cells; test: Assessment of senescence, autofluorescence by flow cytometry, PC9; details: PC9, NGI-1 treatment for 5 days
Protocol: FIGS. 5A-5G illustrate NGI-1 induces G1 arrest and senescence in EGFR addicted tumor cells. FIG. 5A illustrates cell cycle distribution of PC9 cells after 24 h NGI-1 treatment for 24 h determined by flow cytometry. […] FIG. 5B illustrates cell cycle distribution of A549 cells after 24 h NGI-1 treatment for 24 h determined by flow cytometry. FIG. 5C illustrates western blot time course of cyclin D1 expression in PC9 and A549 cells after NGI-1 treatment. FIG. 5D illustrates quantitative real-time PCR analysis of PC9 and A549 cells. A time course of cyclin D1 expression levels relative to GAPDH is represented. […] FIG. 5F illustrates senescence of PC9 cells explored by: cell autofluorescence, measured by flow cytometry using a detector for PE/YFP; lipofuscin accumulation, detected by confocal laser scanning microscopy using an excitation laser of 405 nm with acquired signals from spectrums of yellow 575-620 nm; and morphology changes, enlarged vs. flattened. […] Significance was calculated using a T test (*p<0.05. **p<0.01). FIG. 5G illustrates senescence of A549 cells explored by: cell autofluorescence, measured by flow cytometry using a detector for PE/YFP; lipofuscin accumulation, detected by confocal laser scanning microscopy using an excitation laser of 405 nm with acquired signals from spectrums of yellow 575-620 nm; and morphology changes, enlarged vs. flattened. […]

[2] = test system: lipid linked oligosaccharides (LLOs); test: FACE analysis of lipid linked oligosaccharides; details: p<0.01
Protocol: Fluorophore assisted carbohydrate electrophoresis (FACE) was performed as previously described (Gao, et al., Glycobiology 2002, 12, 353-360; Gao, et al., J Biol Chem 2005, 280, 17901-17909). Control (Ac-Gln-Tyr-Thr-CONH2) and acceptor (Ac-Asn-Tyr-Thr-CONH2) peptides were used for permeabilized cell experiments. Metabolic labeling of Hela cells, transfection of prosaposin (pSAP) and steroid hormone binding globulin (SHBG) vectors, and knockdown of SIT3A and STT3B to monitor N-linked glycosylation knockdown were performed as described (Shrimal, et al., J Cell Biol 2013, 201, 81-95). Western blot analysis was performed as previously described (Bennett, et al., Transl Oncol 2013, 6, 382-391). The following primary antibodies were used: rabbit anti-EGFR (sc-03; Santa Cruz Biotechnology; 1:1000), rabbit anti-phospho (Tyr1173) EGF Receptor (Cell Signaling; 1:1000), rabbit anti-p21 Waf1/Cip1 (12D1; Cell Signaling; 1:1000), rabbit anti-Cyclin D1 (Cell Signaling; 1:1000), mouse anti-β-Actin (8H10D10; Cell Signaling; 1:1000). For phospho-protein array analysis, PC9 and A549 cells were cultured in 6-well plates in serum-containing medium and treated with or without 10 μM NGI-1 for 24 hours. […]

[3] = Celltiter Glo viability assay, HEK293; details: human, HEK293 cells; HEK293, 72 h of compound exposure; read-out: Cytotoxicity Assay Mean EC50
Text: (§1) The HTS approach using the bioluminescent N-linked glycosylation reporter (CCR 2011) in D54-ERLucT and D54-LucT cells has been previously described (Bennett, et al., Transl Oncol 2013, 6, 382-391). Briefly, the primary cell-based screen detects site occupancy of NLG sequons using a modified luciferase protein translated into the ER. […] The methodology for the primary (D54-ERlucT), secondary (D54-LucT), and tertiary (luciferase inhibition) screens as well and toxicity assays with CelltitreGlo are deposited in Pubchem (AID 588693).
(§2) To better understand the connection between structure and activity, analogs were prepared and tested in the D54-ERLucT cell based assay for inhibition of N-linked glycosylation (FIG. 1B). The assay was used to estimate and compare AC40 values among analogs and to guide the design of improved compounds that inhibited N-linked glycosylation. This effort generated 36 unique compounds with modifications to the amine component of the sulfonamide functionality (red), the pyrrolidine moiety (blue) or the methylaminothiazole group (green). Generally, incorporation of larger sulfonamides (i.e., larger secondary amines appended to the sulphone) was not well tolerated, resulting in erosion of potency (7 analogs). However, steric interactions could be mitigated by the introduction of a hydrogen bond accepting oxygen in a larger cyclic amine. Thus, morpholine was determined to be an acceptable surrogate for the dimethylamine component of the sulfonamide (FIGS. 1A-1D). The pyrrolidine group (blue) was replaced with various alkyl, cycloalkyl, and amine groups (7 compounds). The aminothiazole moiety was derivatized most extensively of all three regions (green highlighted area, 22 analogs). […] Analogs with the highest potency in the luciferase assay were retested with western blot analysis to insure that measurements of luciferase activation corresponded to loss of N-linked glycosylation.

[4] = test system: HEK293 cells; test: Celltiter Glo viability assay, HEK293; details: HEK293 EC50 over NLG AC40
Text: as §1, §2

For `Cc1cnc(NC(=O)c2cc(S(=O)(=O)N(C)C)ccc2N2CCCC2)s1` [NGI-1, 5-(N,N-Dimethylsulfamoyl)-N-(5-methylthiazol-2-yl)-2-(pyrrolidin-1-yl)benzamide], the “increase of autofluorescence by flow cytometry” value [1] was less than 60%, the “increase of Glc3Man9Glcnac2 LLO levels” value [2] was 31% and the EC50 at 72 h [3] was greater than 30 µM. For the same compound, the “Selectivity (EC50/AC40)” value [4] was greater than 172.
